Measured values as given in article PMC6162693, “Investigation into the Thermal Response and Pharmacological Activity of Substituted Schiff Bases on α-Amylase and α-Glucosidase” (Antioxidants, 2018).
Converted amounts (≈) assume the structure as drawn. Read-outs that look alike come from different tables or passages of the source.

What was measured:
[1] = DPPH radical scavenging activity; settings: absorbance at 517 nm, 30 min; mean ± SD (n = 3)
Protocol: (§1) The antioxidant activities of Schiff bases (1–9) were determined by DPPH, ABTS^+, H2O2, ferric reducing power assays, and compared with 3,4,5-trihydroxybenzoic acid (10), 5-(1,2-dihydroxyethyl)-3,4-dihydroxyfuran-2(5H)-one (11), and 2-(3,4-dihydroxyphenyl)-3,5,7-trihydroxy-4H-chromen-4-one (12) (as controls).
The scavenging activity of compounds (1–12) was evaluated by adding an ethanolic solution of DPPH (300 μL, 0.05 mM) and incubated for 30 min in the dark. After that, changes in the absorbance of the mixture were measured at 517 nm on a UV-Vis spectrophotometer. The percentage radical scavenging activities (%RSA) and half maximal inhibitory concentration (IC50) of the compounds were estimated from Equation (2) and by linear regression analysis, respectively. All studies were carried out in triplicate. (2) % RSA= 100⌊(Abs. of DPPH − Abs. of test compound)/(Abs. of DPPH)⌋

[2] = ABTS radical cation decolourisation assay; settings: absorbance at 734 nm, 30 min; mean ± SD (n = 3)
Protocol: as §1
A mixture of ABTS (960.2 mg) and potassium persulphate (165.6 mg) was dissolved in 250 mL of distilled water to generate the blue-green ABTS^+ solution. The ABTS solution was stored away in the dark at ambient temperature for 24 h to generate sufficient ABTS radical cation (ABTS^+), then the absorbance was adjusted to 0.9547 with distilled water. Precisely 40 µL solution of the compounds were added to 3 mL ABTS^+ solution and incubated at 298 K for 30 min in the dark. Changes in concentration of ABTS^+ were measured at 734 nm on a spectrophotometer. The degree of ABTS^+ decolourisation was a template for evaluating the percentage proton-donating potential (%PDP) of the test compounds [24]; estimated from Equation (3). The IC50 (μM) of the compounds were determined by linear regression analysis, and all analyses were carried out in triplicate. (3) % PDP = 100⌊(Abs. of ABTS ^+ − Abs. of test compound)/(Abs. of ABTS^+)⌋

[3] = H2O2-scavenging activity; settings: absorbance at 230 nm; mean ± SD (n = 3)
Protocol: as §1
According to the methods of Ruch et al., the H2O2 scavenging activity of compounds (1–12) was evaluated. To 100 µL aliquot of the test compounds was added 0.4 mL of 50 mM phosphate buffer followed by 0.6 mL of 2 mM H2O2 solution prepared in 50 mM phosphate buffer (pH 6.8). The absorbance of the mixture was measured at 230 nm, thereafter, the %H2O2 scavenging activity (Equation (4)) and IC50 (μM) of the compounds 1–12 was determined. All analyses were carried out in triplicate. (4) % H2O2 − scavenging activity = 100⌊(Abs. of H2O2 − Abs. of test compound)/(Abs. of H2O2)⌋

[4] = Radical scavenging over DPPH, ABTS and H2O2 assays; settings: lower limit over the three radical assays; read-out: IC50 values for quenching the radicals (lowest over DPPH, ABTS, H2O2)
Protocol: as §1
The scavenging activity of compounds (1–12) was evaluated by adding an ethanolic solution of DPPH (300 μL, 0.05 mM) and incubated for 30 min in the dark. After that, changes in the absorbance of the mixture were measured at 517 nm on a UV-Vis spectrophotometer. […]
A mixture of ABTS (960.2 mg) and potassium persulphate (165.6 mg) was dissolved in 250 mL of distilled water to generate the blue-green ABTS^+ solution. The ABTS solution was stored away in the dark at ambient temperature for 24 h to generate sufficient ABTS radical cation (ABTS^+), then the absorbance was adjusted to 0.9547 with distilled water. […] Changes in concentration of ABTS^+ were measured at 734 nm on a spectrophotometer. […] The IC50 (μM) of the compounds were determined by linear regression analysis, and all analyses were carried out in triplicate. […]
According to the methods of Ruch et al., the H2O2 scavenging activity of compounds (1–12) was evaluated. […] The absorbance of the mixture was measured at 230 nm, thereafter, the %H2O2 scavenging activity (Equation (4)) and IC50 (μM) of the compounds 1–12 was determined. […]

[5] = tested on: Staphylococcus aureus; experiment: Broth microdilution antimicrobial assay, S. aureus; format: cell-based; settings: for MBC: Staphylococcus aureus, read-out: MBC S. aureus
Protocol: (§2) Exactly 1.5 mg of sodium;10-oxido-7-oxophenoxazin-10-ium-3-olate was dissolved in 100 mL of distilled water, vortexed, filtered, sterilised, and stored at 4 °C for a maximum of 14 days before being applied as a growth indicator. 1000 μM stock solution of Schiff bases (1–9) was prepared in DMSO.
(§3) Fungi (Aspergillus niger, Candida albicans), Gram-positive bacteria (Staphylococcus aureus, Enterococcus faecalis), and Gram-negative bacteria (Salmonella typhi, Escherichia coli).
(§4) Colonies from a 24 h culture agar plate were collected with a loop and transferred to a tube containing lysogeny broth (LB). The various suspensions were incubated at 37 °C and the size adjusted to 1.5 × 10^6 CFU/mL [27].
(§5) The antimicrobial activity of Schiff bases (1–9), was evaluated using 96-well broth microdilution method as described by de Rapper et al. (2013) and Akhalwaya et al. (2018) with slight modifications. Columns 1–11 was filled 50 µL LB, followed by the addition of 50 µL of Schiff base to column 1. Thereafter, 50 µL of Schiff bases from column 1 was transferred by multichannel pipette to columns 2–10, resulting in 50 µL Schiff bases per well. Column 11 contained 100 µL of diluted standardised inoculum, while Column 12 contained 100 µL of LB as a control to monitor sterility. Then, 50 µL of the microorganism suspension was then added to columns 1–10 and the control column 11. The plates were incubated at 37 °C for 24 h, followed by the addition of 30 µL of growth indicator solution and further incubated for 2 h for the observation of colour change. On completion of incubation, the columns with blue indicator colour were reported as the MIC (µM) values. The columns with a concentration higher than the MIC value were plated on nutrient agar to determine the minimum bactericidal and fungicidal concentrations.

[6] = tested on: Enterococcus faecalis; experiment: Broth microdilution antimicrobial assay, E. faecalis; format: cell-based; settings: for MBC: Enterococcus faecalis, read-out: MBC E. faecalis
Protocol: as §2, §3, §4, §5

[7] = tested on: Escherichia coli; experiment: Broth microdilution antimicrobial assay, E. coli; format: cell-based; settings: for MBC: Escherichia coli, read-out: MBC E. coli
Protocol: as §2, §3, §4, §5

[8] = tested on: Salmonella typhi; experiment: Broth microdilution antimicrobial assay, S. typhi; format: cell-based; settings: Salmonella enterica, TYPHI, read-out: MBC S. typhi
Protocol: as §2, §3, §4, §5

[9] = tested on: Aspergillus niger; experiment: Broth microdilution antimicrobial assay, A. niger; format: cell-based
Protocol: as §2, §3, §4, §5

[10] = tested on: Candida albicans; experiment: Broth microdilution antimicrobial assay, C. albicans; format: cell-based
Protocol: as §2, §3, §4, §5

[11] = molecular target: α-glucosidase; experiment: α-Glucosidase inhibitory activity; format: biochemical; settings: Means ×10^2 ± SD from at least three experiments
Protocol: The inhibitory activity of Schiff bases (1-9) against α-glucosidase was assessed by the method previously described by […] et al. […] Then, approximately 0.2 mL of Schiff base solution was mixed with 1.0 mL of 50 mM sodium phosphate buffer (pH 6.9) and 50 μL of α-glucosidase solution (2 U/mL). Thereafter, incubated at 37 °C for 10 min, followed by the addition of exactly 50 μL of 0.7 mM p-nitrophenyl-α-D-glucopyranoside solution in 50 mM sodium phosphate buffer (pH 6.9) and further incubated for 30 min at 37 °C. The reaction was terminated by the addition of 2.0 mL solution of 0.5 M Na2CO3. 0.3 mL aliquot of the above mixture was mixed with 4.7 mL of distilled water and the absorbance measured at 405 nm. […] (6) α - glucosidase inhibition (%) = (Ae - ASB/Ae)100 where Ae is the absorbance of the enzyme solution after incubation and ASB is the absorbance after incubation of Schiff bases solution. The assay was performed in triplicate.

[12] = molecular target: α-amylase; experiment: α-Amylase inhibitory activity; format: biochemical; settings: Means ×10^2 ± SD from at least three experiments
Protocol: The α-amylase inhibitory activity of Schiff bases (1–9) was evaluated by the method reported by Xiao et al. with slight modifications. Substrate solution is prepared by dissolving 1.0 g of starch in 50 mL of 0.4 M NaOH and heated at 100 °C for 5 min. The substrate solution was adjusted to a neutral pH by the addition of 0.1 M HCl, cooled on crushed ice and made to 100 mL in a standard volumetric flask with distilled water. […] Using a microplate, 40 μL substrate and 20 μL Schiff base solution were mixed, then preincubated at 37 °C for 3 min. Thereafter, 20 μL of 50 μg/mL α-amylase solution was dispensed into each well, and further incubated for 15 min. The reaction was terminated by the addition of 80 μL HCl (0.1 M); followed by 200 μL of 1 mM iodine solution, and the absorbances measured at 650 nm. Inhibitory activity was calculated from Equation (5):(5) α − amylase inhibition (%) = (A2 − A1/A4 − A3)100 where A1 is the absorbance of Schiff base, starch, and α-amylase solution after incubation, A2 is the absorbance of Schiff base and starch solution after incubation, A3 is the absorbance of starch and amylase solution after incubation, and A4 is the absorbance of a starch solution after incubation. Thereafter, the IC50 value was determined from the plot of % inhibition versus concentration.

[13] = tested on: Fungi (Aspergillus niger, Candida albicans); experiment: Broth microdilution MIC, antifungal (fungus not specified); format: cell-based; settings: read-out: MIC (antifungal)
Protocol: as §2, §3, §4
The antimicrobial activity of Schiff bases (1–9), was evaluated using 96-well broth microdilution method as described by de Rapper et al. (2013) and Akhalwaya et al. (2018) with slight modifications. Columns 1–11 was filled 50 µL LB, followed by the addition of 50 µL of Schiff base to column 1. Thereafter, 50 µL of Schiff bases from column 1 was transferred by multichannel pipette to columns 2–10, resulting in 50 µL Schiff bases per well. Column 11 contained 100 µL of diluted standardised inoculum, while Column 12 contained 100 µL of LB as a control to monitor sterility. Then, 50 µL of the microorganism suspension was then added to columns 1–10 and the control column 11. […]

[14] = relative to o-hydroxy derivative (8)

With `O=[N+]([O-])c1ccc(C=Nc2cc(O)[nH]n2)cc1` [Compound 1, 3-(((4-nitrophenyl)methylidene)amino)-1H-pyrazol-5-ol] the IC50 [1] was 290 ± 9 µM, the IC50 [2] was 410 ± 6 µM and the IC50 [3] was 350 ± 5 µM. The IC50 [4] was no less than 290 µM, the MBC [5] was 4.31 µM (≈ 1 µg/mL) and the MBC [6] was 4.31 µM (≈ 1 µg/mL). For the same molecule, the MBC [7] was 4.31 µM (≈ 1 µg/mL), the MBC [8] was 2.15 µM (≈ 0.499 µg/mL) and the MFC ([9]; read-out: MFC A. niger) was greater than 4.31 µM. The MFC ([10]; read-out: MFC C. albicans) was greater than 4.31 µM, the IC50 [11] was 540 ± 44 µM and the IC50 [12] was 420 ± 36 µM. The melting point was 285 °C.

For `O=[N+]([O-])c1ccc(C=Nc2c(O)cc(S(=O)(=O)O)c3ccccc23)cc1` [Compound 7, 4-(4-nitrobenzylideneamino)-3-hydroxynaphthalene-1-sulphonic acid], the IC50 [1] was 200 µM, the IC50 [2] was 50 ± 5 µM and the IC50 [3] was 160 ± 90 µM. For the same molecule, the IC50 [4] was no less than 50 µM, the MBC [5] was greater than 2.69 µM and the “antibacterial activity (growth inhibition), S. aureus” value [5, 14] was “very potent”. The MBC [6] was greater than 2.69 µM, the “antibacterial activity (growth inhibition), E. faecalis” value [6, 14] was “very potent” and the MBC [7] was 1.34 µM (≈ 0.499 µg/mL). For the same molecule, the “antibacterial activity (growth inhibition), E. coli” value [7, 14] was “very potent”, the MBC [8] was greater than 2.69 µM and the MFC ([9]; * = no fungicidal effect at the evaluated concentration, n = 3, read-out: MFC A. niger) was 2.69 µM (≈ 1 µg/mL). It also gave an MFC ([10]; 24 h, * = no fungicidal effect at the evaluated concentration, n = 3, read-out: MFC C. albicans) of 1.53 µM (≈ 0.57 µg/mL), an MIC [13] of 0.67 µM (≈ 0.249 µg/mL) and an IC50 [11] of 961 ± 84 µM. For the same molecule, the IC50 [12] was 730 ± 16 µM and the melting point was 200 °C.
